Measurements taken from patent US10798941B2, “Microbiocidal oxadiazole derivatives” (SYNGENTA PARTICIPATIONS AG, priority 2016, dated 2020).

Legend:
[1] = test system: Puccinia recondita f. Sp. Tritici; assay: Puccinia recondita f. sp. tritici / wheat / leaf disc preventative (brown rust); type: in vivo; conditions: foliar, 168 h, 200 ppm in the applied formulation, wheat leaf segments cv. Kanzler, preventative, inoculated 1 day after application, assessed 7 to 9 days after application, vs untreated, read-out: disease control
Procedure, shortened: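 Wheat cv. Kanzler leaf segments on agar were sprayed with formulated compound in water, then inoculated with spores 1 day later. Incubated at 19° C, 75% rh, 12 h light/12 h dark; percent disease control versus untreated scored 7 to 9 days after application.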

Phakopsora pachyrhizi = Phakopsora pachyrhizi / soybean / leaf disc preventative (Asian soybean rust); type: in vivo; conditions: foliar, 288 h, 200 ppm in the applied formulation, soybean leaf disks, inoculated one day after application, assessed 12 to 14 days after application, vs untreated, read-out: disease control
Protocol: (§1) Leaf disks or leaf segments of various plant species are cut from plants grown in a greenhouse. The cut leaf disks or segments are placed in multiwell plates (24-well format) onto water agar. The leaf disks are sprayed with a test solution before (preventative) or after (curative) inoculation. Compounds to be tested are prepared as DMSO solutions (max. 10 mg/ml) which are diluted to the appropriate concentration with 0.025% Tween20 just before spraying. The inoculated leaf disks or segments are incubated under defined conditions (temperature, relative humidity, light, etc.) according to the respective test system. A single evaluation of disease level is carried out 3 to 14 days after inoculation, depending on the pathosystem. Percent disease control relative to the untreated check leaf disks or segments is then calculated.
Soybean leaf disks are placed on water agar in multiwell plates (24-well format) and sprayed with the formulated test compound diluted in water. One day after application leaf discs are inoculated by spraying a spore suspension on the lower leaf surface. After an incubation period in a climate cabinet of 24-36 hours in darkness at 20° C. and 75% rh leaf disc are kept at 20° C. with 12 h light/day and 75% rh. The activity of a compound is assessed as percent disease control compared to untreated when an appropriate level of disease damage appears in untreated check leaf disks (12 to 14 days after application).
(§2) The following compounds at 200 ppm in the applied formulation give at least 80% disease control in this test when compared to untreated control leaf disks under the same conditions, which show extensive disease development.

[2] = test system: Glomerella Lagenarium (Colletotrichum Lagenarium); assay: Glomerella lagenarium (Colletotrichum lagenarium) liquid culture / cucumber / preventative (anthracnose); type: cell-based; conditions: Colletotrichum orbiculare; 20 ppm in the applied formulation; liquid culture in PDB, 24° C., inhibition of growth measured photometrically 3 to 4 days after application, vs untreated; read-out: disease control
Procedure, shortened: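 Conidia from cryogenic storage were mixed into potato dextrose broth. This was added to compound diluted from DMSO into 0.025% Tween20, tested at 20 ppm. Plates were incubated in the dark at 24 °C and 96% relative humidity, and growth was read photometrically after 2–7 days as % activity versus untreated check.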

[3] = test system: Puccinia recondita f. Sp. Tritici; assay: Puccinia recondita f. sp. tritici / wheat / leaf disc curative (brown rust); type: in vivo; conditions: foliar, 144 h, 200 ppm in the applied formulation, wheat leaf segments cv. Kanzler, applied 1 day after inoculation, assessed 6 to 8 days after application, vs untreated, read-out: disease control
Protocol: as §1
Wheat leaf segments cv. Kanzler are placed on agar in multiwell plates (24-well format). The leaf segments are then inoculated with a spore suspension of the fungus. Plates were stored in darkness at 19° C. and 75% relative humidity. The formulated test compound diluted in water was applied 1 day after inoculation. The leaf segments were incubated at 19° C. and 75% relative humidity under a light regime of 12 hours light/12 hours darkness in a climate cabinet and the activity of a compound was assessed as percent disease control compared to untreated when an appropriate level of disease damage appears in untreated check leaf segments (6 to 8 days after application).
as §2

FC(F)(F)c1ccn(Cc2ccc(-c3noc(C(F)(F)F)n3)cc2)n1 [Compound 1.21, 5-(trifluoromethyl)-3-[4-[[3-(trifluoromethyl)pyrazol-1-yl]methyl]phenyl]-1,2,4-oxadiazole]
≥ 80%: pest or weed control at 200 ppm [1] | pest or weed control at 200 ppm (Phakopsora pachyrhizi) | inhibition of growth at 20 ppm [2]

COC(=O)c1ncnn1Cc1ccc(-c2noc(C(F)(F)F)n2)cc1 [Compound 1.36, methyl 2-[[4-[5-(trifluoromethyl)-1,2,4-oxadiazol-3-yl]phenyl]methyl]-1,2,4-triazole-3-carboxylate]
≥ 80%: pest or weed control at 200 ppm [1] | pest or weed control at 200 ppm [3] | pest or weed control at 200 ppm (Phakopsora pachyrhizi) | inhibition of growth at 20 ppm [2]

N#Cc1ncn(Cc2ccc(-c3noc(C(F)(F)F)n3)cc2)n1 [Compound 1.40, 1-[[4-[5-(trifluoromethyl)-1,2,4-oxadiazol-3-yl]phenyl]methyl]-1,2,4-triazole-3-carbonitrile]
≥ 80%: pest or weed control at 200 ppm [1] | pest or weed control at 200 ppm [3] | pest or weed control at 200 ppm (Phakopsora pachyrhizi) | inhibition of growth at 20 ppm [2]

COc1ccc(C(C)c2ccc(-c3noc(C(F)(F)F)n3)cc2)cn1 (stereo not shown) [Compound 1.42, 3-[4-[1-(6-methoxy-3-pyridyl)ethyl]phenyl]-5-(trifluoromethyl)-1,2,4-oxadiazole]
≥ 80%: pest or weed control at 200 ppm [1] | pest or weed control at 200 ppm [3] | pest or weed control at 200 ppm (Phakopsora pachyrhizi) | inhibition of growth at 20 ppm [2]

COC(=O)c1ncn(Cc2ccc(-c3noc(C(F)(F)F)n3)cc2)c1C(=O)OC [Compound 1.43, dimethyl 1-[[4-[5-(trifluoromethyl)-1,2,4-oxadiazol-3-yl]phenyl]methyl]imidazole-4,5-dicarboxylate]
≥ 80%: pest or weed control at 200 ppm [1] | pest or weed control at 200 ppm [3] | pest or weed control at 200 ppm (Phakopsora pachyrhizi) | inhibition of growth at 20 ppm [2]

FC(F)(F)c1nc(-c2ccc(Cn3ccnc3Br)cc2)no1 [Compound 1.49, 3-[4-[(2-bromoimidazol-1-yl)methyl]phenyl]-5-(trifluoromethyl)-1,2,4-oxadiazole]
≥ 80%: pest or weed control at 200 ppm [1] | pest or weed control at 200 ppm [3] | pest or weed control at 200 ppm (Phakopsora pachyrhizi) | inhibition of growth at 20 ppm [2]

CC(=O)NCCc1cn(Cc2ccc(-c3noc(C(F)(F)F)n3)cc2)cn1 [Compound 1.156, N-[2-[1-[[4-[5-(trifluoromethyl)-1,2,4-oxadiazol-3-yl]phenyl]methyl]imidazol-4-yl]ethyl]acetamide]
≥ 80%: pest or weed control at 200 ppm [1] | pest or weed control at 200 ppm [3] | pest or weed control at 200 ppm (Phakopsora pachyrhizi)

N#Cc1cc2n(Cc3ccc(-c4noc(C(F)(F)F)n4)cc3)cccc-2n1 [Compound 1.157, 4-[[4-[5-(trifluoromethyl)-1,2,4-oxadiazol-3-yl]phenyl]methyl]pyrrolo[3,2-b]pyridine-2-carbonitrile]
≥ 80%: pest or weed control at 200 ppm [1] | pest or weed control at 200 ppm (Phakopsora pachyrhizi) | inhibition of growth at 20 ppm [2]

N#Cc1cc2ncccc2n1Cc1ccc(-c2noc(C(F)(F)F)n2)cc1 [Compound 1.158, 1-[[4-[5-(trifluoromethyl)-1,2,4-oxadiazol-3-yl]phenyl]methyl]pyrrolo[3,2-b]pyridine-2-carbonitrile]
≥ 80%: pest or weed control at 200 ppm [1] | pest or weed control at 200 ppm (Phakopsora pachyrhizi) | inhibition of growth at 20 ppm [2]

Cc1cc(O)nn1Cc1ccc(-c2noc(C(F)(F)F)n2)cc1 [Compound 1.171, 5-methyl-1-[[4-[5-(trifluoromethyl)-1,2,4-oxadiazol-3-yl]phenyl]methyl]pyrazol-3-ol]
≥ 80%: pest or weed control at 200 ppm [1] | pest or weed control at 200 ppm (Phakopsora pachyrhizi) | inhibition of growth at 20 ppm [2]

CCOC(=O)c1cc(C2CC2)n(Cc2ccc(-c3noc(C(F)(F)F)n3)cc2)n1 [Compound 1.186, ethyl 5-cyclopropyl-1-[[4-[5-(trifluoromethyl)-1,2,4-oxadiazol-3-yl]phenyl]methyl]pyrazole-3-carboxylate]
≥ 80%: pest or weed control at 200 ppm [1] | pest or weed control at 200 ppm (Phakopsora pachyrhizi) | inhibition of growth at 20 ppm [2]

COC(=O)c1cccc2c1cnn2Cc1ccc(-c2noc(C(F)(F)F)n2)cc1 [Compound 1.193, methyl 1-[[4-[5-(trifluoromethyl)-1,2,4-oxadiazol-3-yl]phenyl]methyl]indazole-4-carboxylate]
≥ 80%: pest or weed control at 200 ppm [1] | pest or weed control at 200 ppm (Phakopsora pachyrhizi) | inhibition of growth at 20 ppm [2]

CCOC(=O)c1cn(Cc2ccc(-c3noc(C(F)(F)F)n3)cc2)nc1C(F)F [Compound 1.204, ethyl 3-(difluoromethyl)-1-[[4-[5-(trifluoromethyl)-1,2,4-oxadiazol-3-yl]phenyl]methyl]pyrazole-4-carboxylate]
≥ 80%: pest or weed control at 200 ppm [1] | pest or weed control at 200 ppm (Phakopsora pachyrhizi) | inhibition of growth at 20 ppm [2]

CCOC(=O)c1cnn(Cc2ccc(-c3noc(C(F)(F)F)n3)cc2)c1C(F)F [Compound 1.205, ethyl 5-(difluoromethyl)-1-[[4-[5-(trifluoromethyl)-1,2,4-oxadiazol-3-yl]phenyl]methyl]pyrazole-4-carboxylate]
≥ 80%: pest or weed control at 200 ppm (Phakopsora pachyrhizi) | inhibition of growth at 20 ppm [2]

FC(F)(F)c1nc(-c2ccc(Cn3cnc(SCc4ccccc4)n3)cc2)no1 [Compound 1.212, 3-[4-[(3-benzylsulfanyl-1,2,4-triazol-1-yl)methyl]phenyl]-5-(trifluoromethyl)-1,2,4-oxadiazole]
≥ 80%: pest or weed control at 200 ppm [1] | pest or weed control at 200 ppm (Phakopsora pachyrhizi) | inhibition of growth at 20 ppm [2]

COc1ccc(-c2cc(C=O)n(Cc3ccc(-c4noc(C(F)(F)F)n4)cc3)n2)cc1 [Compound 1.223, 5-(4-methoxyphenyl)-2-[[4-[5-(trifluoromethyl)-1,2,4-oxadiazol-3-yl]phenyl]methyl]pyrazole-3-carbaldehyde]
≥ 80%: pest or weed control at 200 ppm (Phakopsora pachyrhizi) | inhibition of growth at 20 ppm [2]

CCCc1c(C(=O)OCC)ncn1Cc1ccc(-c2noc(C(F)(F)F)n2)cc1 [Compound 1.224, ethyl 5-propyl-1-[[4-[5-(trifluoromethyl)-1,2,4-oxadiazol-3-yl]phenyl]methyl]imidazole-4-carboxylate]
≥ 80%: pest or weed control at 200 ppm [1] | pest or weed control at 200 ppm (Phakopsora pachyrhizi) | inhibition of growth at 20 ppm [2]

O=Cc1ccc(-c2nnn(Cc3ccc(-c4noc(C(F)(F)F)n4)cc3)n2)cc1 [Compound 1.227, 4-[2-[[4-[5-(trifluoromethyl)-1,2,4-oxadiazol-3-yl]phenyl]methyl]tetrazol-5-yl]benzaldehyde]
≥ 80%: pest or weed control at 200 ppm (Phakopsora pachyrhizi) | inhibition of growth at 20 ppm [2]

N#Cc1nn(Cc2ccc(-c3noc(C(F)(F)F)n3)cc2)c2ccccc12 [Compound 1.228, 1-[[4-[5-(trifluoromethyl)-1,2,4-oxadiazol-3-yl]phenyl]methyl]indazole-3-carbonitrile]
≥ 80%: pest or weed control at 200 ppm (Phakopsora pachyrhizi) | inhibition of growth at 20 ppm [2]

N#Cc1nnn(Cc2ccc(-c3noc(C(F)(F)F)n3)cc2)c1-c1c(F)cccc1F [Compound 1.240, 5-(2,6-difluorophenyl)-1-[[4-[5-(trifluoromethyl)-1,2,4-oxadiazol-3-yl]phenyl]methyl]triazole-4-carbonitrile]
≥ 80%: pest or weed control at 200 ppm [1] | pest or weed control at 200 ppm (Phakopsora pachyrhizi) | inhibition of growth at 20 ppm [2]
